This is an account of results in patent US11672788B2, “Histone deacetylase inhibitors for immunomodulation in tumor microenvironment” (GREAT NOVEL THERAPEUTICS BIOTECH & MEDICALS CORPORATION, priority 2020, dated 2023).

As a reminder, the IC50 is the concentration that gives 50% inhibition. Low readings indicate higher potency, high ones lower potency.

Experiment [1] concerns CT26 tumor. In words: Anti-cancer activity in CT26 tumor-bearing BALB/c mice. The class given is in vivo. Particulars: for ORR (%): k-30 compounds 50 mg/kg, Regorafenib 30 mg/kg po daily; for ORR (%) / CR / PD / PR: first tumor assessment; for CR / PD / PR / CR^& / PD^& / PR^& / SD^&: number of mice; for ORR (%)^& / CR^& / PD^& / PR^& / SD^&: second tumor assessment on day 40. The protocol:
Six- to eight-week-old male BALB/c mice (National Laboratory Animal Center, Taiwan) were used in each treatment group for all animal experiments. […] CT26 cell line was purchased from ATCC. CT26 tumor cells were grown in McCoy's 5A supplemented with 10% (vol/vol) FBS at 37° C., 5% CO2. […] Tumors were allowed to grow for 8-11 days (tumor size about 150-250 mm^3) before randomization and treatment. Animals were euthanized when tumors reached more than 3000 mm^3 […]. CT26-bearing mice were given 2.5 mg/kg of anti-IgG (cat. #BE0089, Lot #716719J3, Bio X Cell) and anti-PD-1 (cat. #BE0146, Lot #735019J3, Bio X Cell) antibody by i.p. administration on days 8, 11, 14, 17, 20 and 23 post tumor implantation, and all antibodies were diluted to appropriate concentrations in 100 μL of sterile PBS (pH 7.4) (Invitrogen Life Technologies). […] The anti-cancer activity was measured from the start of the treatment until the tumor volume reached 3,000 mm^3. Tumor volume was calculated as length×width^2×0.5.
The BALB/c mice bearing murine CT26 colon tumors were treated with various therapeutic modalities as indicated. […] CT26 tumor-bearing mice were euthanized when tumor volume reached 3000 mm^3 after tumor implantation. […] After 16 days of treatment, we continued to monitor the tumor size up to day 60. When tumor growth reappeared and tumor size reached at least 5 fold in mice with CR or PR response after first tumor assessment, it was defined as relapse/recurrence. […] Furthermore, we also investigate epigenetic immunomodulatory properties in series of GNTbm compounds including GNTbm-05/k-30, GNTbm-11/k-30, GNTbm-38/k-30 and GNTbm-39/k-30.

In the next experiment the test system is CT26 cells. Briefly: Tumor rechallenge study (immune memory) in tumor-bearing mice. The class given is in vivo. Particulars: Exp 1; mice resistant to CT26 re-challenge.
Experiment [2] deals with CT26 tumor. In words: Survival rate in CT26 tumor-bearing mice. Particulars: Exp 1. The class given is in vivo. On the procedure:
The administration of antibody or drugs was performed for 16 days from day 8 to day 23. The tumor continued to grow in the tumor-bearing mice. The tumor volume of the mice was measured once every three or four days (twice/week). The tumor-bearing mice were regarded as dead when the tumor volume reached 3,000 mm^3. All treatment groups were recorded and analyzed.

Another experiment relates to SK-BR-3. Briefly: In vitro cytotoxicity MTT assay. The class given is cell-based. To be noted: Homo sapiens, 72 h, IC50 ± SD. Summed up:
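Plated 96-well (MDA-MB-231 6×10^3; others 2.4×10^4); treated 72 h; MTT.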

The next experiment concerns MDA-MB-231. Briefly: In vitro cytotoxicity MTT assay. The format is cell-based, human. To be noted: Homo sapiens, MDA-MB-231, 72 h, IC50 ± SD. Summed up:
(§1)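 Seeding: MDA-MB-231 6×10^3; MDA-MB-453, NCI-N87, SW48 2.4×10^4 each, 96-well. 72 h, MTT viability read-out.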

The test system of a further experiment is MDA-MB-453. In words: In vitro cytotoxicity MTT assay. Particulars: Homo sapiens, MDA-MB-453, 72 h, IC50 ± SD. The format is cell-based, human. A digest of the protocol: as §1
A general note: Formazan colour is commonly taken as a measure of viable cells.

In the next experiment the test system is M10. In words: In vitro cytotoxicity MTT assay. The class given is cell-based, human. Particulars: Homo sapiens, M10, 72 h, IC50 ± SD. Summed up:
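Viability is determined by MTT after 72 h of treatment, using 2.4×10^4 seeded cells for SW48, NCI-N87 and MDA-MB-453 and 6×10^3 for MDA-MB-231.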

Another experiment concerns SW48. In words: In vitro cytotoxicity MTT assay. The class given is cell-based, human. Particulars: Homo sapiens, SW48, 72 h, IC50 ± SD. Summed up:
as §1

Experiment [3] deals with MDA-MB-231 cells. Briefly: Cell cycle arrest by PI flow cytometry. The class given is cell-based, human. To be noted: MDA-MB-231, 3.125 μM, 72 h. The protocol:
(§2) A PI/RNase staining assay (BD Bioscience™) was performed to reveal the presence of cell cycle arrest and apoptotic cells after treatment with GNTbm compounds, Chidamide and Entinostat. […] After treatment cells were harvested, fixed with 80% ethanol for 24 h, washed with 1×PBS and stained with PI/RNase for 15 min at room temperature. The cells were then analyzed using Flow Cytometer within 1 h.
Background: In flow cytometry, cells or beads pass a laser one at a time.

The subject of experiment [4] is M10 cells. Briefly: Cell cycle arrest by PI flow cytometry. The format is cell-based, human. To be noted: M10, 12.5 μM, 72 h. On the procedure: as §2
Experiment [5] has as its system SW48 cells. Briefly: Cell cycle arrest by PI flow cytometry. The format is cell-based, human. Particulars: SW48, 3.125 μM, 72 h. On the procedure: as §2
In experiment [6] the test system is MDA-MB-231 cells. Briefly: Cell apoptosis (sub-G1) by PI flow cytometry. The class given is cell-based, human. To be noted: MDA-MB-231, 6.25 μM, 72 h. On the procedure:
as §2

Experiment [7] deals with M10 cells. In words: Cell apoptosis (sub-G1) by PI flow cytometry. The class given is cell-based, human. Particulars: M10, 12.5 μM, 72 h. The protocol:
as §2

The test system of experiment [8] is SW48 cells. Briefly: Cell apoptosis (sub-G1) by PI flow cytometry. The format is cell-based, human. To be noted: SW48, 6.25 μM, 72 h. The protocol:
as §2

Experiment [9] concerns histone H3 acetylation (AcH3) in MDA-MB-231 cells. Briefly: Western blot of histone H3 acetylation. The format is cell-based, human. Particulars: MDA-MB-231, 1.0 μM, 24 h. On the procedure: Human breast cancer MDA-MB-231 cells and human colorectal adenocarcinoma SW48 cells were analyzed. MDA-MB-231 and SW48 were obtained from Bioresource Collection and Research Center (BCRC, Taiwan). MDA-MB-231 and SW48 were grown at 37° C. under humidified air supplemented without CO2 in Leibovitz's L-15 (cat. #11415114, Thermo Fisher Scientific) containing 10% heat inactivated fetal calf serum (Thermo Scientific), 1× concentration of MycoZap antibiotics (cat. #VZA-2011, Lonza). Cells were treated with GNTbm compounds series, Chidamide or Entinostat for different time periods or at varied doses. Cells were treated with indicated doses for 24 h or cells were treated with indicated doses for different time periods. Cell pellets were dissolved with RIPA buffer (cat. #20-188, Merck) with protease and phosphatase inhibitors (cat. #K272, BioVision) and clarified by centrifugation. Equal amounts of total protein were resolved by SDS-PAGE and transferred to polyvinylidene fluoride membranes (cat. #1620177, BIO-RAD). Blots were incubated with primary antibodies against β-actin (cat. #sc-47778, Santa Cruz Biotechnology), Histone 3ac (cat. #61637, Active Motif), and HRP secondary antibodies anti-rabbit (ab6721, Abcam) and anti-mouse (sc-2005, Santa Cruz). Blots were developed using the ECL Western Blotting Substrate (cat. #sc-2048, Santa Cruz Biotechnology) Image blots were analyzed with the iBright FL1000 (Thermo Fisher Scientific) imaging systems.
In general terms: A western blot detects proteins with antibodies after separation by electrophoresis.

The next experiment deals with HDAC11 (Homo sapiens (Human), UniProt Q96DB2). In words: HDACs 1-11 enzymatic inhibition by BPS Bioscience.
Chain of HDAC11 (Q96DB2 whole entry): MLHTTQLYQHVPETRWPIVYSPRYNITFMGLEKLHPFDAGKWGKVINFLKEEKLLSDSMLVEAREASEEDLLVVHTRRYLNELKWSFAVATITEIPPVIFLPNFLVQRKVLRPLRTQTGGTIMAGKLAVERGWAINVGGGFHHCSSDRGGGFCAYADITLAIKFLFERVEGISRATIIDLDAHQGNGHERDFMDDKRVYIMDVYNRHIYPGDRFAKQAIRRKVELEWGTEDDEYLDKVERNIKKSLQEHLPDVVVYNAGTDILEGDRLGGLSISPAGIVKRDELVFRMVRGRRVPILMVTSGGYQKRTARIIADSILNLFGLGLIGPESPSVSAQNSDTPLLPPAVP

Experimental for CT26 cells: All mice with PR/CR response after treatment went rechallenged with CT26 cells on the contralateral side (please see Table 6). The rechallenge with CT26 was performed on day 33, which was 7 days (day 33) after first tumor assessment (day 26), with injection of 5×10^6 CT26 cells to the right flank of each mouse. After rechallenge with CT26 cells, the tumor was allowed to grow for another 7 days (day 40) to determine the baseline as 1 fold. After a further 10 days (day 50), the tumor growth was evaluated for the rechallenge. If both of the following criteria are met, the response will be considered as relapse: first, the tumor size over 2 folds when compared to that of baseline; second, the tumor volume at day 50 was over 300 mm^3. Relapse happens when immune memory activity is not sufficiently activated. If the tumor growth is inhibited, it means the immune memory is activated.
The mice were treated with different regimens for 16 days, and then the first tumor assessment was performed (day 26). […] Then rechallenge was performed with the same kind of cancer cells (CT26; 5×10^6) inoculated on the opposite flank for about another 7 days (day 40), and then the tumor volume would be determined as baseline (1 fold). The rechallenge tumor was allowed to grow for 10 days (day 50), and then the tumor size was measured to evaluate the immune memory as positive or negative. […]
Experimental for HDAC11: HDAC assay was performed according to standard Protocols (Fluorgenic HDACs 1-11 assay kit, BPS Bioscience™). […] After 0.5 h, assay developer was added to the samples and the absorbance was read at fluorogenic wavelength. The relative inhibition to HDACs 1, 2, 3, 4, 5, 6, 7, 8, 9, and 11 activities was determined in each sample. […] All of the compounds were dissolved in DMSO. The serial dilution of the compounds was first performed in 100% DMSO with the highest concentration at 1 mM. Each intermediate compound dilution (in 100% DMSO) would then get directly diluted 10× fold into assay buffer for an intermediate dilution of 10% DMSO in HDAC assay buffer and 5 μl of the dilution was added to a 50 μl reaction so that the final concentration of DMSO is 1% in all of the reactions. The enzymatic reactions for the HDAC enzymes were conducted in duplicate at 37° C. for 30 minutes in a 50 μl mixture containing HDAC assay buffer, 5 μg BSA, an HDAC substrate, a HDAC enzyme and a test compound. After enzymatic reactions, 50 μl of 2×HDAC Developer was added to each well for the HDAC enzymes and the plate was incubated at room temperature for an additional 15 minutes. Fluorescence intensity was measured at an excitation of 360 nm and an emission of 460 nm using a Tecan Infinite M1000 microplate reader. HDAC activity assays were performed in duplicate at each concentration. The fluorescent intensity data were analyzed using the computer software, Graphpad Prism. In the absence of the compound, the fluorescent intensity (Ft) in each data set was defined as 100% activity. In the absence of HDAC, the fluorescent intensity (Fb) in each data set was defined as 0% activity. The percent activity in the presence of each compound was calculated according to the following equation: % activity=(F−Fb)/(Ft−Fb), where F=the fluorescent intensity in the presence of the compound. The values of % activity versus a series of compound concentrations were then plotted using non-linear regression analysis of Sigmoidal dose-response curve generated with the equation Y=B+(T−B)/1+10((Log EC50−X)×Hill Slope), where Y=percent activity, B=minimum percent activity, T=maximum percent activity, X=logarithm of compound and Hill Slope=slope factor or Hill coefficient. The IC50 value was determined by the concentration causing a half-maximal percent activity.

As for `CNC(=O)c1cc(Oc2ccc(NC(=O)Nc3ccc(Cl)c(C(F)(F)F)c3)c(F)c2)ccn1` [Regorafenib], the “ORR (%)” value in the experiment on CT26 tumor [1] (Exp 1, initial tumor volume 245 mm3, strict criteria (PR ≤1 times)) is given as 11%. In addition, in the experiment on CT26 tumor [1] (Exp 1), the CR turned out to be 1, the PD amounted to 1, the PR is 0 and the “ORR (%)^&” value is on record as 22%. Besides, in the experiment with CT26 tumor [1] (Exp 1), the “CR^&” value is reported as 2, the “PD^&” value worked out at 5, the “PR^&” value turned out to be 0 and the “SD^&” value worked out at 2. Moreover, in the experiment with CT26 tumor [1] (Exp 1, tumor growth at least 5 fold in mice with CR or PR after first assessment, monitored up to day 60), the “Relapse (recurrence)” value is 0% (0/1). For the same compound, in the experiment on CT26 tumor [1] (Exp 2, initial tumor volume 192 mm3), the “ORR (%)” value turned out to be 0%. Moreover, in the experiment with CT26 tumor [1] (Exp 2), the CR is reported as 0, the PD is given as 8, the PR was found to be 0 and the “ORR (%)^&” value is listed as 0%. In the experiment on CT26 tumor [1] (Exp 2), the “CR^&” value was found to be 0, the “PD^&” value came out at 9, the “PR^&” value is given as 0 and the “SD^&” value was 0. Also, the “Immunity (rechallenge)” value in the experiment with CT26 cells was 100% (1/1). Also, in the experiment on CT26 tumor [2], the “Survival rate (%)” value is recorded as 11%.
For `Nc1ccccc1NC(=O)c1ccc(CNC(=O)OCc2cccnc2)cc1` [Entinostat, reference compound], the half-maximal inhibitory concentration (IC50) was 1.94 ± 0.1 µM in the experiment with SK-BR-3; 13.2 ± 1.34 µM in the experiment on MDA-MB-231; 1.82 ± 0.024 µM with MDA-MB-453; 4.34 ± 0.01 µM in the experiment on M10; 5.21 ± 0.37 µM in the experiment with SW48; more than 10 µM on HDAC11. The Cell cycle arrest entry is “significantly induced cell cycle arrest in G0/G1 phase” in the experiment on MDA-MB-231 cells [3], “significantly induced cell cycle arrest of M10 cells in the G2/M phase” in the experiment with M10 cells [4] and “significantly induced cell cycle arrest in G0/G1 phase” with SW48 cells [5]. Also, the “Cells in G2/M phase” value in the experiment on M10 cells [4] turned out to be 20.2%. Besides, in the experiment with SW48 cells [5], the “Cells in G0/G1 phase” value is reported as 72.1%. Also, the figures for the “Induction of apoptosis (sub-G1 phase)” value with MDA-MB-231 cells [6], with M10 cells [7] and in the experiment on SW48 cells [8] were “significantly induced apoptosis”, “significantly induced apoptosis in M10 cells” and “significantly induced apoptosis”, respectively. Further, the “Level of histone H3 acetylation” value in experiment [9] is reported as “significantly increased the level of histone H3 acetylation”.
